Measurements published in patent publication US8088792B2, “Triazolopyridinone derivatives for use as stearoyl CoA desaturase inhibitors” (Gilead Sciences, Inc., priority 2008, dated 2012).
pIC50: −log10 of the molar value.

Molecular target: T1, Stearoyl-CoA desaturase (SCD) (Rattus norvegicus, UniProt P07308)
T1 construct: The rat liver microsomes were collected according to the procedure described in Ozols (1990) Methods Enzm, 182:225; from tissue
T1 sequence (P07308 1-358): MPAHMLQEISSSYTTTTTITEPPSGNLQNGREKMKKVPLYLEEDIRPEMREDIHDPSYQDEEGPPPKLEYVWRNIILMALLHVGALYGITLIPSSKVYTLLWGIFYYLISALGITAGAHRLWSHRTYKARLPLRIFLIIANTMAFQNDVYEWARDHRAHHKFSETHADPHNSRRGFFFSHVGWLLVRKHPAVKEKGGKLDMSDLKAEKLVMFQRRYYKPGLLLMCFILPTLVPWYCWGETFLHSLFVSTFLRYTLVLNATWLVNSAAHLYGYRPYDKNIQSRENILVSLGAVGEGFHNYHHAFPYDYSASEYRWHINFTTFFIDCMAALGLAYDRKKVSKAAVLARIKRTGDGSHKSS
Experiment: SCD assay in rat liver microsomes ([3H]stearoyl CoA desaturation, adapted from Talamo and Bloch)
Format: biochemical
Conditions: rat liver microsomes 0.2 mg/ml final, 30 min preincubation, 45 min reaction, room temperature
Excerpt: The identification of compounds of the invention as SCD inhibitors was readily accomplished using the SCD enzyme and microsomal assay procedure described in Talamo and Bloch (1969) Analytical Biochemistry 29:300-304.
The rat liver microsomes were collected according to the procedure described in Ozols (1990) Methods Enzm, 182:225.
Male Spraque Dawley Rats were placed on regimented fasting protocol for one week to stimulate SCD enzymatic activity. 48-hour periods were alternated between feeding and fasting to induce and down-regulate SCD activity with SCD activity being induced via carbohydrate rich diet prior to liver perfusion and collection.
The rats were anesthetized with Isoflurane inhalation anesthetic, the liver perfused with cold phosphate buffered saline (PBS), weighed, and chilled in cold homogenization buffer (250 mM sucrose, 10 mM Tris, 1 mM EDTA, pH 7.6).
The livers were finely minced and placed in homogenization tube. Homogenization buffer (40 mL) was added to the homogenization tube and the liver homogenized and centrifuged in a pre-chilled […] for 10 min at 4° C.
Following centrifugation, the supernatant was collected and the pellet removed and discarded. The supernatant was centrifuge at 10,000 G for 35 minutes. Following centrifugation, the supernatant was collect and the pellet discarded. The supernatant was then centrifuged in a pre-chilled 45-Ti rotor at 130,000 G (41,000 RPM) for 90 minutes at 4° C.
The supernatant was then aspirated off and the collected microsomal pellet washed in 25 mL of Glycerol PBS (1× PBS 7.4, 20% Glycerol) and resuspended in 4-5 volumes of Glycerol PBS.
The protein concentration of the microsomal preparation was determined by BCA assay (Pierce) and the microsomes were aliquoted and stored at −80° C.
Biobeads were ground to a smaller size in a mortar and pestle and resuspended in 3.6% TCA. The beads were then filtered through […] mesh.
SCD was determined in the desaturase assay buffer. This assay buffer contained 0.1 M Tris buffer, pH 7.2, 2 mM NADH, 4.8 mM ATP, 0.5 mM CoA, 4.8 mM MgCl2, and 0.1% BSA.
1 μl of each compound of Formula I was added to an assay plate by a low volume (0.5-10 μL) multichannel pipette. A DMSO control was also prepared. The microsomes were quickly thawed and added to assay buffer so that a concentration of 0.4 mg/ml was achieved (0.2 mg/ml assay final). 50 μl of the microsome suspension in assay buffer was then added into each well in the compound assay plate, the plate was covered, and the microsomes preincubated with the compounds for 30 minutes on the orbital shaker, 50-75rpm, at room temperature. […]

Row | pIC50 | Structure (SMILES)
1 | 5.21 | O=C(O)c1ccc2nn(Cc3ccc(Cl)c(Cl)c3)c(=O)n2c1 [Compound 1, 2-(3,4-dichlorobenzyl)-3-oxo-2,3-dihydro-[1,2,4]triazolo[4,3-a]pyridine-6-carboxylic acid]
2 | 6.72 | CCCCCCNC(=O)c1ccc2nn(Cc3ccc(Cl)c(Cl)c3)c(=O)n2c1 [Compound 2, 2-(3,4-dichlorobenzyl)-N-hexyl-3-oxo-2,3-dihydro-[1,2,4]triazolo[4,3-a]pyridine-6-carboxamide]
3 | 5.51 | CC(C)(C)OC(=O)Nc1ccc2nn(Cc3ccc(Cl)c(Cl)c3)c(=O)n2c1 [Compound 4, tert-butyl 2-(3,4-dichlorobenzyl)-3-oxo-2,3-dihydro-[1,2,4]triazolo[4,3-a]pyridin-6-ylcarbamate]
4 | 6.80 | O=C(NCCO)c1ccc2nn(Cc3ccc(Cl)c(Cl)c3)c(=O)n2c1 [Compound 3, 2-(3,4-dichlorobenzyl)-N-(2-hydroxyethyl)-3-oxo-2,3-dihydro-[1,2,4]triazolo[4,3-a]pyridine-6-carboxamide]
